Assay results reported in patent US11572353B2, “Alkynyl-substituted heterocyclic compound, preparation method therefor and medical use thereof” (BEIJING INNOCARE PHARMA TECH CO., LTD., priority 2016, dated 2023).
“Also recorded” adds a separate entry of the source. Where two headings read alike, the source gives them in different places.

Key:
[1] = molecular target: human recombinant FGFR1 catalytic domain protein (amino acid 308-731) (Homo sapiens (Human), UniProt P11362); assay: FGFR1 activity inhibition test (HTRF kinase assay); assay type: biochemical; conditions: 40 μM ATP
Sequence of human recombinant FGFR1 catalytic domain protein (amino acid 308-731) (P11362 other isoform, or with tags, fused parts or gaps): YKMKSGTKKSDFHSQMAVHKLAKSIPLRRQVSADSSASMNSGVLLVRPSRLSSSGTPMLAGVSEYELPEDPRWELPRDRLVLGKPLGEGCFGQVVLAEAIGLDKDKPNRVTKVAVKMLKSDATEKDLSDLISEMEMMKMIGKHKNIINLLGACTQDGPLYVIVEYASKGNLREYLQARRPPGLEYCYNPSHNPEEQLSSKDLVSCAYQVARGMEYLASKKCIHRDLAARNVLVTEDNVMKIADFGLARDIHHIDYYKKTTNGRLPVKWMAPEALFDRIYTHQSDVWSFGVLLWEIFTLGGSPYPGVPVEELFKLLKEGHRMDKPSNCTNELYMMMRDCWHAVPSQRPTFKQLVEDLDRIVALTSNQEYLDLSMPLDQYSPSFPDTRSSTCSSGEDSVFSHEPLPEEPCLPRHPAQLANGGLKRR
Procedure: (§1) The effect of the compounds of the present invention on the in vitro activity of FGFR was assessed by measuring the phosphorylation level of the substrate in a kinase reaction using the HTRF kinase assay kit (Table 1).
(§2) If the IC50 value of a compound is very low, the initial concentration of the compound can be lowered.
(§3) The IC50 value of the compound was calculated from the 10 concentration points using the XLfit software in Excel by the following formula: Y=Bottom+(Top−Bottom)/(1+10^((log IC50−X)*slope factor))
(§4) Where Y is the percentage of inhibition, Bottom is the bottom platform value of the S-curve, Top is the top platform value of the S-curve, X is the logarithm of the concentration of the compound to be tested, and slope factor is the slope coefficient of the curve.

[2] = molecular target: human recombinant FGFR3 catalytic domain protein (amino acid 399-806) (Homo sapiens (Human), UniProt P22607); assay: FGFR3 activity inhibition test (HTRF kinase assay); assay type: biochemical; conditions: 90 μM ATP
Sequence of human recombinant FGFR3 catalytic domain protein (amino acid 399-806) (P22607 399-806): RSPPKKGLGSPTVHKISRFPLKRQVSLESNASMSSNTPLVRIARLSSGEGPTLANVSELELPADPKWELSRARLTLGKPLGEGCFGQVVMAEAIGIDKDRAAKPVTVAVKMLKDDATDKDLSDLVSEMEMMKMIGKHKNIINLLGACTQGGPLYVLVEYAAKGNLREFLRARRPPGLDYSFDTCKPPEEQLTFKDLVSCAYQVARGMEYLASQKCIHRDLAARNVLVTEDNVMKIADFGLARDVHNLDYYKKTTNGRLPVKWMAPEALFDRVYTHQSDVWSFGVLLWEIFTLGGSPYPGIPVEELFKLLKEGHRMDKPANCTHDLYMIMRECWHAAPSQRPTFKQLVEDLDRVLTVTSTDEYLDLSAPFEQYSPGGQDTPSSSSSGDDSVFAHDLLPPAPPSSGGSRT
Procedure: as §1, §2, §3, §4

[3] = molecular target: human recombinant FGFR2 catalytic domain protein (amino acid 400-821) (Homo sapiens (Human), UniProt P21802); assay: FGFR2 activity inhibition test (HTRF kinase assay); assay type: biochemical; conditions: 50 μM ATP
Sequence of human recombinant FGFR2 catalytic domain protein (amino acid 400-821) (P21802 400-821): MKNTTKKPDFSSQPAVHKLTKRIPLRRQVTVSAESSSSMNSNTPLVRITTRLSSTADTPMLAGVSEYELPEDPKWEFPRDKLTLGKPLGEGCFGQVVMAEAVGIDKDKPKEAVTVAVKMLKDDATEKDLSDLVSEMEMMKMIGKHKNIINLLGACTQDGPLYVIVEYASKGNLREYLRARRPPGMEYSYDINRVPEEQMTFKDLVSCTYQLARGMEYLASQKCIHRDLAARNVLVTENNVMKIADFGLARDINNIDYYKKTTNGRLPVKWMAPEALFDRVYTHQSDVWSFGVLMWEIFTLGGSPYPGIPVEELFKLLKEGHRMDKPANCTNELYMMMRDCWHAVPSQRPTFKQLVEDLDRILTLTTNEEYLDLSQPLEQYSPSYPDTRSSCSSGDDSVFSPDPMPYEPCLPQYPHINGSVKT
Procedure: as §1, §2, §3, §4

[4] = system: RT4 bladder cancer cell line; assay: Inhibition on the proliferation of RT4 cells (luminescent cell viability assay); assay type: cell-based; conditions: Homo sapiens, RT-4, 72 hours
Procedure: (§5) CellTilter-Glo reagent (Promega, Cat. No. G7572) consists of CTG lyophilized powder and CTG buffer. Before use, the lyophilized powder needs to be dissolved in the buffer.
(§6) After overnight incubation, 3 μL of DMEM diluted compound was added to each well, which was then gently centrifuged to mix well, and then the 384-well plate was placed in a 37° C., 5% CO2 incubator to continue the culture, and after 72 hours, the plate was taken out and allowed to stand at room temperature for 30 minutes, next added 15 μL of CTG reagent per well, which was warmed up to room temperature, the plate was shaken gently on a shaker for 3 minutes to ensure sufficient cell lysis, allowed to stand 10 minutes to stabilize the luminescence signal, and then read the luminescence signal with EnVision (Perkin Elmer).
as §4
The effect of the compounds of the present invention on cell proliferation of the RT4 bladder cancer cell line was assessed using a luminescent cell viability assay (Table 2).
(§7) For the experimental method, please refer to the method for determining the inhibition on the proliferation of Hep3B cells.

[5] = molecular target: human recombinant FGFR4 catalytic domain protein (amino acid 460-802) (Homo sapiens (Human), UniProt P22455); assay: FGFR4 activity inhibition test (HTRF kinase assay); assay type: biochemical; conditions: 90 μM ATP
Sequence of human recombinant FGFR4 catalytic domain protein (amino acid 460-802) (P22455 460-802): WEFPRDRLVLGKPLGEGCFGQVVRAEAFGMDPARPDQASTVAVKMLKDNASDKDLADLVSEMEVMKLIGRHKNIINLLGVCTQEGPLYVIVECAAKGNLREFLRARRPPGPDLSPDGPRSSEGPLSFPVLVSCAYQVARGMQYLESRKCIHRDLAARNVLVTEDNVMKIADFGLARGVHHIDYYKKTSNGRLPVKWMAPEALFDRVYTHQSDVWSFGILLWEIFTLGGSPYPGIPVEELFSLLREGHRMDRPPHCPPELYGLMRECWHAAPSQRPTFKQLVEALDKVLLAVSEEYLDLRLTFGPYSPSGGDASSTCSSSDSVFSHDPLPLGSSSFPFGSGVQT
Procedure: as §1, §2, §3, §4

Hep3B hepatoma cell line = assay: Inhibition on the proliferation of Hep3B cells (luminescent cell viability assay); assay type: cell-based; conditions: Homo sapiens, 72 hours
Procedure: The effect of the compounds of the present invention on cell proliferation of Hep3B hepatoma cell line was assessed using a luminescent cell viability assay (Table 2).
as §5, §6, §4

[6] = system: SNU-16 gastric cancer cell line; assay: Inhibition on the proliferation of SNU-16 cells (luminescent cell viability assay); assay type: cell-based; conditions: Homo sapiens, 72 hours
Procedure: as §5, §6, §4
The effect of the compounds of the present invention on cell proliferation of SNU-16 gastric cancer cell line was assessed using a luminescent cell viability assay (Table 2).
as §7

[7] = system: FGFR2-overexpressed SNU-16 gastric cancer cell line derived xenograft tumors; assay type: in vivo; conditions: for TGI % (tumor growth inhibition) / mean tumor size: day 25
Procedure: The cells were harvested in 90% confluence and no less than 90% viability, and then counted. […] Mice were inoculated subcutaneously into the right flank with 200 uL of 8×10^6 SNU-16 cells resuspended in 50% Matrigel (purchased from Corning). […] Dosing was initiated on day 0 and effects on tumor growth were evaluated by measuring the percentage of tumor growth inhibition (TGI) at the end of the study. Tolerability was assessed by body weight loss, lethality, and clinical signs of adverse treatment-related side effects. Tumor volume and body weight were measured twice per week during the administration period. The percentage of TGI was determined on day 25 after treatment. The difference between the mean value of tumor volume in the treatment group and that in the vehicle group was analyzed for significance using one-way ANOVA (followed by Dennett's test) at each time point and a P<0.05 was considered to be statistically significant.

Compound | IC50 [1] [nM] | IC50 [2] [nM] | IC50 [3] [nM] | IC50 [4] [nM] | IC50 [5] [nM] | IC50 (Hep3B hepatoma cell line) [nM] | IC50 [6] [nM] | other results
C=CC(=O)N1CC[C@H](n2nc(C#Cc3cc(OC)cc(OC)c3)c(C(N)=O)c2NCCCN2CCOCC2)C1 [Compound 30, (S)-1-(1-acryloylpyrrolidin-3-yl)-3-((3,5-dimethoxyphenyl)ethynyl)-5-((3-morpholinopropyl)amino)-1H-pyrazole-4-carboxamide] | 10 to 100 | < 10 | < 10 | < 10 | 10 to 100 | 10 to 100 | < 10 | 
C=CC(=O)N1CC[C@H](n2nc(C#Cc3cc(OC)cc(OC)c3)c(C(N)=O)c2NC)C1 [Compound 21, (S)-1-(1-acryloylpyrrolidin-3-yl)-3-((3,5-dimethoxyphenyl)ethynyl)-5-(methylamino)-1H-pyrazole-4-carboxamide] | < 10 | < 10 | < 10 | < 10 | < 10 | < 10 | < 10 | TGI % (tumor growth inhibition) ([7]; 0.3 mg/kg oral BID for 25 days): 91.0%; mean tumor size ([7]; 0.3 mg/kg oral BID for 25 days): 240 mm^3; TGI % (tumor growth inhibition) ([7]; 1 mg/kg oral BID for 25 days): 88.3%; mean tumor size ([7]; 1 mg/kg oral BID for 25 days): 261 mm^3; TGI % (tumor growth inhibition) ([7]; 3 mg/kg oral BID for 25 days): 95.9%; mean tumor size ([7]; 3 mg/kg oral BID for 25 days): 200 mm^3; locomotor activities ([7]; 10 mg/kg BID): without significant decrease of locomotor activities; mean body weight loss ([7]; 10 mg/kg BID): 11%; TGI % (tumor growth inhibition) ([7]; 10 mg/kg oral BID for 25 days): 108%; mean tumor size ([7]; 10 mg/kg oral BID for 25 days): 103 mm^3; anti-tumor activity (overall) ([7]; 0.3, 1, 3 and 10 mg/kg oral BID): dose-dependently reduced tumor size; also recorded: marked anti-tumor activities; body weight loss ([7]; 3, 1 and 0.3 mg/kg BID, during the study): no body weight loss; tolerability ([7]; 3, 1 and 0.3 mg/kg BID, tumor-bearing animals): well-tolerated; tolerability (overall summary) ([7]; tumor-bearing animals, summary of study): well-tolerated
C=CC(=O)N1CC[C@H](n2nc(C#Cc3cc(Cl)ccc3F)c(C(N)=O)c2NC)C1 [Compound 23, (S)-1-(1-acryloylpyrrolidin-3-yl)-3-((5-chloro-2-fluorophenyl)ethynyl)-5-(methylamino)-1H-pyrazole-4-carboxamide] | 10 to 100 | < 10 | < 10 | 10 to 100 | 10 to 100 | < 10 | < 10 | 
C=CC(=O)N1CC[C@H](n2nc(C#Cc3cc(OC)cc(OC)c3)c(C(N)=O)c2NCCO)C1 [Compound 29, (S)-1-(1-acryloylpyrrolidin-3-yl)-3-((3,5-dimethoxyphenyl)ethynyl)-5-((2-hydroxyethyl)amino)-1H-pyrazole-4-carboxamide] | 10 to 100 | < 10 | < 10 | < 10 | 10 to 100 | < 10 | < 10 | 
C=CC(=O)N1CC[C@H](n2cc(C(N)=O)c(C#Cc3cc(OC)cc(OC)c3)n2)C1 [Compound 1, (S)-1-(1-acryloylpyrrolidin-3-yl)-3-((3,5-dimethoxyphenyl)ethynyl)-1H-pyrazole-4-carboxamide] | 10 to 100 | 10 to 100 | 10 to 100 | 10 to 100 | 10 to 100 | 10 to 100 | 10 to 100 | 
C=CC(=O)N1CC[C@H](n2nc(C#Cc3cc(OC)cc(OC)c3)c(C(N)=O)c2NCCN2CCOCC2)C1 [Compound 31, (S)-1-(1-acryloylpyrrolidin-3-yl)-3-((3,5-dimethoxyphenyl)ethynyl)-5-((2-morpholinoethyl)amino)-1H-pyrazole-4-carboxamide] | 10 to 100 | < 10 | < 10 | < 10 |  | 10 to 100 | < 10 | 

Further lines, with some results ahead:

IC50 [1] [nM] | IC50 [2] [nM] | IC50 [3] [nM] | IC50 [4] [nM] | IC50 [5] [nM] | IC50 (Hep3B hepatoma cell line) [nM] | IC50 [6] [nM] | Compound | other results
< 10 | < 10 | < 10 | < 10 | < 10 | < 10 | < 10 | C=CC(=O)N1CC[C@H](n2nc(C#Cc3cc(OC)cc(OC)c3)c(C(N)=O)c2N)C1 [Compound 7, (S)-1-(1-acryloylpyrrolidin-3-yl)-5-amino-3-((3,5-dimethoxyphenyl)ethynyl)-1H-pyrazole-4-carboxamide] | 
< 10 | < 10 | < 10 | < 10 | < 10 | < 10 | < 10 | C=CC(=O)N1CC[C@H](n2nc(C#Cc3cc(OC)cc(OC)c3F)c(C(N)=O)c2NC)C1 [Compound 22, (S)-1-(1-acryloylpyrrolidin-3-yl)-3-((2-fluoro-3,5-dimethoxyphenyl)ethynyl)-5-(methylamino)-1H-pyrazole-4-carboxamide] | 
< 10 | < 10 | < 10 | < 10 | < 10 | 10 to 100 | < 10 | C=CC(=O)N1CC[C@H](n2nc(C#Cc3cc(OC)cc(OC)c3)c(C(N)=O)c2NCC2CC2)C1 [Compound 26, (S)-1-(1-acryloylpyrrolidin-3-yl)-5-((cyclopropylmethyl)amino)-3-((3,5-dimethoxyphenyl)ethynyl)-1H-pyrazole-4-carboxamide] | 
< 10 | < 10 | < 10 | < 10 | < 10 | < 10 | < 10 | C=CC(=O)N1CC[C@H](n2nc(C#Cc3cc(OC)cc(OC)c3F)c(C(N)=O)c2N)C1 [Compound 17, (S)-1-(1-acryloylpyrrolidin-3-yl)-5-amino-3-((2-fluoro-3,5-dimethoxyphenyl)ethynyl)-1H-pyrazole-4-carboxamide] | 
